The numbers were not newly measured in EP4772635A1, “RNAI AGENT TARGETING APP AND PHARMACEUTICAL USE THEREOF” (Tuojie Biotech (Shanghai) Co., Ltd., priority 2023, dated 2025), which cites them from elsewhere.

For this data set the following is noted: octanol-water partition coefficient, illustrative values in the definitions.

As to `NCCCCCCO` [6-aminohexanol], the logKow entry was “about 0.7”. As for `CC(C)CCC[C@@H](C)[C@H]1CC[C@H]2[C@@H]3CC=C4C[C@@H](OC(=O)NCCCCCCO)CC[C@]4(C)[C@H]3CC[C@]12C` [cholesteryl N-(hexan-6-ol)carbamate], the logKow was 10.7.
